In assay [1] the test system is Mus musculus. The assay can be described thus: Anticonvulsant activity in Swiss albino mouse assessed as protection against pentylenetetrazole-induced seizures at 10 mg/kg administered 1 hr before PTZ challenge relative to control. It is filed as functional.
Assay [2] has as its system Mus musculus. Nature of the assay: Anticonvulsant activity in Swiss albino mouse assessed as duration of pentylenetetrazole-induced seizures at 10 mg/kg administered 1 hr before PTZ challenge. It is filed as functional.

SMILES strings stand for the structures.

`Fc1ccc(/C=C/c2nc3ccccc3n3c(-c4ccc(-c5ccccc5)cc4)nnc23)cc1`: the Activity in assay [1] was 0%; in assay [2], 8 s.
In the same order, the values of `O=[N+]([O-])c1cccc(/C=C/c2nc3ccccc3n3nnnc23)c1` are 0% and 11 s.
For `C(=C\c1nc2ccccc2n2nnnc12)/c1ccccc1` the same measures were 100% and 0 s.
For `Fc1ccc(/C=C/c2nc3ccccc3n3nnnc23)cc1` the same measures were 100% and 0 s.
Turning to `COc1ccc(-c2nnc3c(/C=C/c4ccc(Cl)cc4)nc4ccccc4n23)cc1`, the Activity in assay [1] is 0%; in assay [2], 12 s.
For `COc1ccc(/C=C/c2nc3ccccc3n3c(C)nnc23)cc1` the same measures were 0% and 14 s.
In the same order, the values of `COc1ccc2cc(/C=C/c3nc4ccccc4n4c(C(F)(F)F)nnc34)ccc2c1` are 0% and 12 s.
For `Cc1nnc2c(/C=C/c3ccc(F)cc3)nc3ccccc3n12` the same measures were 100% and 0 s.
In the case of `CCOc1ccc(-c2nnc3c(/C=C/c4ccc(Cl)cc4)nc4ccccc4n23)cc1O`, the Activity was determined as 0% in assay [1] and 12 s in assay [2].
As for `COc1ccc(/C=C/c2nc3ccccc3n3nnnc23)cc1`, the Activity in assay [1] amounted to 0%; in assay [2] it was 11 s.
With `Cc1nnc2c(/C=C/c3cccc([N+](=O)[O-])c3)nc3ccccc3n12`, the figures for the Activity in assay [1] and in assay [2] were 0% and 11 s, respectively.
In the case of `Fc1ccc(/C=C/c2nc3ccccc3n3cnnc23)cc1`, the Activity came out at 100% in assay [1] and 0 s in assay [2].
In the same order, the values of `COc1ccc(/C=C/c2nc3ccccc3n3c(C(F)(F)F)nnc23)cc1` are 100% and 0 s.
For `COc1ccc2cc(/C=C/c3nc4ccccc4n4nnnc34)ccc2c1` the same measures were 0% and 8 s.
For `COc1ccc(/C=C/c2nc3ccccc3n3c(-c4ccc(F)cc4)nnc23)cc1` the same measures were 100% and 0 s.
As for `Fc1ccc(/C=C/c2nc3ccccc3n3c(C(F)(F)F)nnc23)cc1`, the Activity amounted to 100% in assay [1] and 0 s in assay [2].
In the same order, the values of `O=[N+]([O-])c1cccc(/C=C/c2nc3ccccc3n3cnnc23)c1` are 0% and 12 s.
In the same order, the values of `COc1ccc(/C=C/c2nc3ccccc3n3cnnc23)cc1` are 0% and 14 s.

(Values after ChEMBL document CHEMBL1138556, “Synthesis of some new 4-styryltetrazolo[1,5-a]quinoxaline and 1-substituted-4-styryl[1,2,4]triazolo[4,3-a]quinoxaline derivatives as potent anticonvulsants” (2009).)
